US20260166159A1, “KRAS G12D DEGRADATION AGENT, AND PREPARATION METHOD AND USE THEREFOR” (LEADINGTAC PHARMACEUTICAL (SHAOXING) CO., LTD., priority 2022, published 2026)

Tests used:
[1] = test system: KRAS G12D mutant human gastric cancer cell AGS; experiment: 3D cell proliferation inhibition assay, AGS; format: cell-based; conditions: 168 h, 7 days, CTG, class symbols
In short: (§1)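 Cells were seeded at 5×10^2 cells/well in low-adsorption plates with compound (10000–0.026 nM final, 0.2% DMSO) and grown for 7 days at 37 °C, 5% CO2. Viability was read by CTG luminescence after 60 min at room temperature. IC50 came from log concentration–inhibition curve fits, normalised to DMSO and medium-only controls.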

[2] = test system: KRAS G12D mutant human lung cancer cell A427; experiment: 3D cell proliferation inhibition assay, A427; format: cell-based; conditions: A-427, 168 h, A427, 7 days, CTG, class symbols
In short: as §1

[3] = molecular target: T1, Human KRAS G12D 6His-tagged (Homo sapiens, UniProt P01116, G12D); experiment: KRAS-G12D/GTP binding assay (HTRF); conditions: class symbols
T1 construct: purchased PerkinElmer
In short: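 HTRF kit format: 6His-tagged KRAS G12D incubated with compound (final 0.02-5000 nM, 0.5% DMSO), anti-6His Eu cryptate antibody and GTP Red reagent for 1 h at 25° C. 665/620 nm ratio versus control gave inhibition rates; IC50 by nonlinear fit.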

[4] = test system: phosphorylated ERK; experiment: KRAS G12D-mediated phosphorylated ERK inhibition assay (AlphaLISA), A427; format: cell-based; conditions: Homo sapiens, A-427; A427 cells; class symbols; read-out: pERK (A427) IC50
Description: The relative amounts of phosphorylated ERK and total ERK in the samples were separately determined according to the test methods provided in the instructions of the AlphaLISA SureFire Ultra p-ERK 1/2 (Thr202/Tyr204) kit (PerkinElmer) and the AlphaLISA SureFire Ultra TotalERK 1/2 kit (PerkinElmer).
The experimental procedures for the assay of the phosphorylated ERK and total ERK were as follows: 10 μL of each sample was added to a 384-well plate (Greiner), and 5 μL of the prepared Acceptor Beads (PerkinElmer) mixed solution (containing 50× Acceptor Beads 615, Activation Buffer, and equal volumes of Reaction Buffer 1 and Reaction Buffer 2) was added to each well; and the plate was incubated at room temperature for 2 h. Then 5 μL of 1× Donor Beads (PerkinElmer) diluted with Dilution Buffer was added to each well, and the plate was incubated at room temperature overnight. After the incubation was completed, AlphaLISA signal values for the phosphorylated ERK and total ERK were separately measured on an EnVision microplate reader (PerkinElmer) in the AlphaScreen standard mode. The following formula was adopted: phosphorylated ERK correction value=phosphorylated ERK AlphaLISA signal value/total ERK AlphaLISA signal value. The relative ratio of the phosphorylated ERK for each sample was calculated. The percentage inhibition rates of the compounds on the phosphorylated ERK at each concentration were calculated by comparing the relative value of the phosphorylated ERK with that of the DMSO control well. Then non-linear curve fittings for logarithmic concentration-inhibition rate were performed by the GraphPad Prism 8 analysis software, and the IC50 values of the compounds on the inhibition of the phosphorylated ERK were obtained (Table 2).

T1 sequence (P01116 1-188 isoform P01116-2 G12D): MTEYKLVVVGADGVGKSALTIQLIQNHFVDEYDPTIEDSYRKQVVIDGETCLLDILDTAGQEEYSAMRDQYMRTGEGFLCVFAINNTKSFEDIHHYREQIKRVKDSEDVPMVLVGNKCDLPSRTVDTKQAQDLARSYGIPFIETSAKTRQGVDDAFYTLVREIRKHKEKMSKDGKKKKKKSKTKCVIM

C#Cc1c(F)ccc2cc(O)cc(-c3ncc4c(N5CC6CCC(C5)N6)nc(OCC5(CN6CCN(CCCC7CCN(C(=O)c8ccc(Cl)c(N9CCC(=O)NC9=O)c8)CC7)CC6)CCC5)nc4c3F)c12 [Example 24, 1-(5-(4-(3-(4-((1-(((4-(3,8-diazabicyclo[3.2.1]octan-3-yl)-7-(8-ethynyl-7-fluoro-3-hydroxynaphthalen-1-yl)-8-fluoropyrido[4,3-d]pyrimidin-2-yl)oxy)methyl)cyclobutyl)methyl)piperazin-1-yl)propyl)piperidine-1-carbonyl)-2-chlorophenyl)dihydropyrimidine-2,4(1H,3H)-dione]
IC50 [1]: 50 to 100 nM | IC50 [2]: 100 to 500 nM | IC50 [3]: ≤ 50 nM | IC50 [4]: ≤ 50 nM

C#Cc1c(F)ccc2cc(O)cc(-c3ncc4c(N5CC6CCC(C5)N6)nc(OCC(C)(C)CN5CCN(CC6CCC7(CC6)CCN(C(=O)c6ccc(OC)c(N8CCC(=O)NC8=O)c6)CC7)CC5)nc4c3F)c12 [Example 26, 1-(5-(9-((4-(3-((4-(3,8-diazabicyclo[3.2.1]octan-3-yl)-7-(8-ethynyl-7-fluoro-3-hydroxynaphthalen-1-yl)-8-fluoropyrido[4,3-d]pyrimidin-2-yl)oxy)-2,2-dimethylpropyl)piperazin-1-yl)methyl)-3-azaspiro[5.5]undecane-3-carbonyl)-2-methoxyphenyl)dihydropyrimidine-2,4(1H,3H)-dione]
IC50 [1]: 50 to 100 nM | IC50 [2]: 50 to 100 nM | IC50 [3]: 50 to 100 nM | IC50 [4]: ≤ 50 nM

C#Cc1c(F)ccc2cc(O)cc(-c3ncc4c(N5CC6CCC(C5)N6)nc(OCC5(CN6CCN(CC7CCC8(CC7)CCN(C(=O)c7ccc(Br)c(N9CCC(=O)NC9=O)c7)CC8)CC6)CC5)nc4c3F)c12 [Example 29, 1-(5-(9-((4-((1-(((4-(3,8-diazabicyclo[3.2.1]octan-3-yl)-7-(8-ethynyl-7-fluoro-3-hydroxynaphthalen-1-yl)-8-fluoropyrido[4,3-d]pyrimidin-2-yl)oxy)methyl)cyclopropyl)methyl)piperazin-1-yl)methyl)-3-azaspiro[5.5]undecane-3-carbonyl)-2-bromophenyl)dihydropyrimidine-2,4(1H,3H)-dione]
IC50 [1]: ≤ 50 nM | IC50 [2]: ≤ 50 nM | IC50 [3]: ≤ 50 nM | IC50 [4]: ≤ 50 nM

CCc1c(F)ccc2cc(O)cc(-c3ncc4c(N5CC6CCC(C5)N6)nc(OCC5(CN6CCN(CC7CCC8(CC7)CCN(C(=O)c7ccc(Cl)c(N9CCC(=O)NC9=O)c7)CC8)CC6)CC5)nc4c3F)c12 [Example 30, 1-(5-(9-((4-((1-(((4-(3,8-diazabicyclo[3.2.1]octan-3-yl)-7-(8-ethyl-7-fluoro-3-hydroxynaphthalen-1-yl)-8-fluoropyrido[4,3-d]pyrimidin-2-yl)oxy)methyl)cyclopropyl)methyl)piperazin-1-yl)methyl)-3-azaspiro[5.5]undecane-3-carbonyl)-2-chlorophenyl)dihydropyrimidine-2,4(1H,3H)-dione]
IC50 [1]: ≤ 50 nM | IC50 [2]: ≤ 50 nM | IC50 [3]: 50 to 100 nM | IC50 [4]: ≤ 50 nM

C#Cc1c(F)ccc2cc(O)cc(-c3ncc4c(N5CC6CCC(C5)N6)nc(OCC5(CN6CCN(CCCCC7CCC8(CC7)CCN(C(=O)c7ccc(Cl)c(N9CCC(=O)NC9=O)c7)CC8)CC6)CC5)nc4c3F)c12 [Example 31, 1-(5-(9-(4-(4-((1-(((4-(3,8-diazabicyclo[3.2.1]octan-3-yl)-7-(8-ethynyl-7-fluoro-3-hydroxynaphthalen-1-yl)-8-fluoropyrido[4,3-d]pyrimidin-2-yl)oxy)methyl)cyclopropyl)methyl)piperazin-1-yl)butyl)-3-azaspiro[5.5]undecane-3-carbonyl)-2-chlorophenyl)dihydropyrimidine-2,4(1H,3H)-dione]
IC50 [1]: ≤ 50 nM | IC50 [2]: ≤ 50 nM | IC50 [3]: ≤ 50 nM | IC50 [4]: ≤ 50 nM

C#Cc1c(F)ccc2cc(O)cc(-c3ncc4c(N5CC6CCC(C5)N6)nc(OC[C@@H]5CCCN5CCC5CCC6(CC5)CCN(C(=O)c5ccc(Cl)c(N7CCC(=O)NC7=O)c5)CC6)nc4c3F)c12 [Example 32, 1-(5-(9-(2-((S)-2-(((4-(3,8-diazabicyclo[3.2.1]octan-3-yl)-7-(8-ethynyl-7-fluoro-3-hydroxynaphthalen-1-yl)-8-fluoropyrido[4,3-d]pyrimidin-2-yl)oxy)methyl)pyrrolidin-1-yl)ethyl)-3-azaspiro[5.5]undecane-3-carbonyl)-2-chlorophenyl)dihydropyrimidine-2,4(1H,3H)-dione]
IC50 [1]: 1000 to 10000 nM | IC50 [2]: 1000 to 10000 nM | IC50 [3]: 500 to 1000 nM | IC50 [4]: 1000 to 10000 nM

C#Cc1c(F)ccc2cc(O)cc(-c3ncc4c(N5CC6CCC(C5)N6)nc(OCC56CC(CN7CCN(CC8CCC9(CC8)CCN(C(=O)c8ccc(Cl)c(N%10CCC(=O)NC%10=O)c8)CC9)CC7)(C5)C6)nc4c3F)c12 [Example 33, 1-(5-(9-((4-((3-(((4-(3,8-diazabicyclo[3.2.1]octan-3-yl)-7-(8-ethynyl-7-fluoro-3-hydroxynaphthalen-1-yl)-8-fluoropyrido[4,3-d]pyrimidin-2-yl)oxy)methyl)bicyclo[1.1.1]pentan-1-yl)methyl)piperazin-1-yl)methyl)-3-azaspiro[5.5]undecane-3-carbonyl)-2-chlorophenyl)dihydropyrimidine-2,4(1H,3H)-dione]
IC50 [1]: ≤ 50 nM | IC50 [2]: 100 to 500 nM | IC50 [3]: 100 to 500 nM | IC50 [4]: ≤ 50 nM

C#Cc1c(F)ccc2cc(O)cc(-c3ncc4c(N5CC6CCC(C5)N6)nc(OCC5(CN6CCN(CC7CCC8(CC7)CCN(C(=O)c7ccc(C)c(N9CCC(=O)NC9=O)c7)CC8)CC6)CC5)nc4c3F)c12 [Example 36, 1-(5-(9-((4-((1-(((4-(3,8-diazabicyclo[3.2.1]octan-3-yl)-7-(8-ethynyl-7-fluoro-3-hydroxynaphthalen-1-yl)-8-fluoropyrido[4,3-d]pyrimidin-2-yl)oxy)methyl)cyclopropyl)methyl)piperazin-1-yl)methyl)-3-azaspiro[5.5]undecane-3-carbonyl)-2-methylphenyl)dihydropyrimidine-2,4(1H,3H)-dione]
IC50 [1]: ≤ 50 nM | IC50 [2]: ≤ 50 nM | IC50 [3]: ≤ 50 nM | IC50 [4]: ≤ 50 nM
